According to article PMC10113378, “Synthesis, in vitro α-glucosidase inhibitory activities, and molecular dynamic simulations of novel 4-hydroxyquinolinone-hydrazones as potential antidiabetic agents” (Scientific Reports, 2023):
Like-named read-outs stand apart in the source and are kept apart here.

Assays:
α-glucosidase [1] = conditions: cited from earlier work
[2] = molecular target: T1, α-glucosidase enzyme (EC3.2.1.20, Saccharomyces cerevisiae) (Saccharomyces cerevisiae, UniProt P53341); test: biochemical; conditions: mean ± SD; substrate p-nitrophenyl glucopyranoside 4 mM, pH 6.8, 37 °C; read-out: α-Glucosidase inhibition IC50
T1 construct: purchased Sigma-Aldrich
T1 sequence (P53341 whole entry): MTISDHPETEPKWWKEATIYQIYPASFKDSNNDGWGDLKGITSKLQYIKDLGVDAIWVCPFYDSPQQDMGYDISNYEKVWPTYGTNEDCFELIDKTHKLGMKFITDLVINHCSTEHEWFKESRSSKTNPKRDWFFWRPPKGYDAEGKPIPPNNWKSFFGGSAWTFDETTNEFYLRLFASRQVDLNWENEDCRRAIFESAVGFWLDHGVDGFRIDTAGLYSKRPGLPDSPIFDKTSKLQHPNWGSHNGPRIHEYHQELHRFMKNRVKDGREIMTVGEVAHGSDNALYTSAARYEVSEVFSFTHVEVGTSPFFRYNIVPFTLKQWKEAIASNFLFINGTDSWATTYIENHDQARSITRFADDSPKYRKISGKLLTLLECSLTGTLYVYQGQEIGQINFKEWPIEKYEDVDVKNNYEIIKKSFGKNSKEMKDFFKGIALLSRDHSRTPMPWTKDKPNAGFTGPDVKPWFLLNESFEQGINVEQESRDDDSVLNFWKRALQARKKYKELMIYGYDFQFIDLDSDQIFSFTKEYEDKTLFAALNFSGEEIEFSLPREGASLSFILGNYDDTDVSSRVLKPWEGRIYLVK
Description: α-glucosidase enzyme (EC3.2.1.20, Saccharomyces cerevisiae, 20 U/mg) and substrate (p-nitrophenyl glucopyranoside) were purchased from Sigma-Aldrich. 1 mg of α-glucosidase was dissolved in potassium phosphate buffer (50 mM, pH = 6.8) to obtain the initial activity of 1 U/ml. Then, 20 µl of this enzyme solution was incubated with 135 µl of potassium phosphate buffer and 20 µl of test compound at various concentrations in DMSO. […] The percentage of inhibition for each entry was calculated by using the following formula: %Inhibition=Abscontrol-Abssample/Abscontrol×100.
IC50 values were obtained from the nonlinear regression curve using the Logit method[28],[29].

α-glucosidase [3] = molecular target: T2, α-glucosidase (Saccharomyces cerevisiae, UniProt P53341); test: Enzyme kinetic studies (Lineweaver–Burk plot, secondary plot); type: biochemical; conditions: for mode of inhibition: Lineweaver–Burk plot, Km increased, Vmax unchanged; for Ki: from plot of Km versus inhibitor concentration, read-out: inhibition constant, Ki
T2 construct: purchased Sigma-Aldrich
T2 sequence (P53341 whole entry): as above
Description: A Lineweaver–Burk plot was generated to identify the type of inhibition and the Michaelis–Menten constant (Km) value was determined from the plot between the reciprocal of the substrate concentration (1/[S]) and reciprocal of enzyme rate (1/V) over various inhibitors concentrations[30],[31].

Structure (SMILES) | IC50 [2] [µM] | melting point [°C] | also measured
O=C(N/N=C/c1c(O)cc(O)cc1O)c1ccc(-c2cc(=O)c3ccccc3o2)cc1 [F] | – | – | IC50 (α-glucosidase [1]; flavone-hydrazone, read-out: IC50): 15.4 ± 0.22 µM
O=C(N/N=C/c1ccc(Cl)cc1)c1ccc(-c2nc3ccccc3s2)cc1 [G] | – | – | IC50 (α-glucosidase [1]; benzothiazole-bearing benzohydrazide, read-out: IC50): 5.31 ± 0.03 µM
C[C@H]1O[C@H](O[C@H]2[C@H](O)[C@@H](O)[C@@H](O[C@H]3[C@H](O)[C@@H](O)C(O)O[C@@H]3CO)O[C@@H]2CO)[C@H](O)[C@@H](O)[C@@H]1N[C@H]1C=C(CO)[C@@H](O)[C@H](O)[C@H]1O (some centres unmarked) [Acarbose] | – | – | α-glucosidase inhibition (α-glucosidase [1]; at 128 μg/mL): 75.55%
O=C(N/N=C/c1cc(Br)ccc1O)c1c(O)c2ccccc2[nH]c1=O [Compound 6l, (E)-N'-(5-bromo-2-hydroxybenzylidene)-4-hydroxy-2-oxo-1,2-dihydroquinoline-3-carbohydrazide] | 94.2 ± 1 | 171 to 173 | mode of inhibition (α-glucosidase [3]): competitive inhibition; Ki (α-glucosidase [3]): 92 µM
O=C(N/N=C/c1ccc(O)c(O)c1)c1ccc(-c2nnc(-c3ccc4ncccc4c3)o2)cc1 [C] | – | – | IC50 (α-glucosidase [1]; quinoline–oxadiazole Schiff bases, read-out: IC50): 2.6 ± 0.01 µM
O=C(N/N=C/c1ccc(O)c(O)c1)c1ccc2ncccc2c1 [D] | – | – | IC50 (α-glucosidase [1]; quinoline derivatives, read-out: IC50): 6.2 ± 0.3 µM
O=C(N/N=C/c1cccc(F)c1)c1ccc2nc(-c3ccccc3)c(-c3ccccc3)nc2c1 [H] | – | – | mode of inhibition (α-glucosidase [1]): competitive mode of inhibition; IC50 (α-glucosidase [1]; read-out: IC50): 111 µM
O=C(Cc1ccc(Cl)cc1Cl)N/N=C1/C(=O)Nc2cc(Br)ccc21 [E] | – | – | IC50 (α-glucosidase [1]; isatin-hydrazone structure, recent research (reference number not given), read-out: IC50): 2.2 ± 0.25 µM
Oc1ccc2ccccc2n1 [A, 2-hydroxyquinoline] | – | – | IC50 (α-glucosidase [1]; Fig. 1): 64.4 ± 1.7 µg/mL
O=C(N/N=C/c1cc([N+](=O)[O-])ccc1O)c1c(O)c2ccccc2[nH]c1=O [Compound 6m, (E)-4-hydroxy-N'-(2-hydroxy-5-nitrobenzylidene)-2-oxo-1,2-dihydroquinoline-3-carbohydrazide] | 93.5 ± 0.6 | 198 to 200 | mode of inhibition (α-glucosidase [3]): competitive inhibition; Ki (α-glucosidase [3]): 93 µM

More lines, main results first:

IC50 [2] [µM] | melting point [°C] | Structure (SMILES) | also measured
196.3 ± 0.7 | 186 to 188 | O=C(N/N=C/c1cccc(O)c1)c1c(O)c2ccccc2[nH]c1=O [Compound 6k, (E)-4-hydroxy-N'-(3-hydroxybenzylidene)-2-oxo-1,2-dihydroquinoline-3-carbohydrazide] | –
575.6 ± 0.4 | 193 to 195 | COc1cc(/C=N/NC(=O)c2c(O)c3ccccc3[nH]c2=O)ccc1O [Compound 6o, (E)-4-hydroxy-N'-(4-hydroxy-3-methoxybenzylidene)-2-oxo-1,2-dihydroquinoline-3-carbohydrazide] | –
120.5 ± 0.8 | 208 to 210 | O=C(N/N=C/c1ccc([N+](=O)[O-])cc1)c1c(O)c2ccccc2[nH]c1=O [Compound 6g, (E)-4-hydroxy-N'-(4-nitrobenzylidene)-2-oxo-1,2-dihydroquinoline-3-carbohydrazide] | –
382.6 ± 0.9 | – | O=C(N/N=C/c1ccccc1)c1c(O)nc2ccccc2c1O [Compound 6a, (E)-N'-benzylidene-4-hydroxy-2-oxo-1,2-dihydroquinoline-3-carbohydrazide] | –
259 ± 1 | 189 to 191 | COc1ccc(/C=N/NC(=O)c2c(O)c3ccccc3[nH]c2=O)cc1 [Compound 6i, (E)-4-hydroxy-N'-(4-methoxybenzylidene)-2-oxo-1,2-dihydroquinoline-3-carbohydrazide] | –
136.7 ± 0.5 | 180 to 182 | Cc1ccc(/C=N/NC(=O)c2c(O)c3ccccc3[nH]c2=O)cc1 [Compound 6h, (E)-4-hydroxy-N'-(4-methylbenzylidene)-2-oxo-1,2-dihydroquinoline-3-carbohydrazide] | –
436.7 ± 1 | 187 to 189 | O=C(N/N=C/c1cccc(Br)c1)c1c(O)c2ccccc2[nH]c1=O [Compound 6e, (E)-N'-(3-bromobenzylidene)-4-hydroxy-2-oxo-1,2-dihydroquinoline-3-carbohydrazide] | –
131.6 ± 0.3 | 194 to 196 | O=C(N/N=C/c1ccc(Cl)cc1)c1c(O)c2ccccc2[nH]c1=O [Compound 6d, (E)-N'-(4-chlorobenzylidene)-4-hydroxy-2-oxo-1,2-dihydroquinoline-3-carbohydrazide] | –
154.8 ± 0.1 | 177 to 179 | O=C(N/N=C/c1ccccc1O)c1c(O)c2ccccc2[nH]c1=O [Compound 6j, (E)-4-hydroxy-N'-(2-hydroxybenzylidene)-2-oxo-1,2-dihydroquinoline-3-carbohydrazide] | –
247 ± 1.1 | 190 to 192 | O=C(N/N=C/c1ccccc1F)c1c(O)c2ccccc2[nH]c1=O [Compound 6b, (E)-N'-(2-fluorobenzylidene)-4-hydroxy-2-oxo-1,2-dihydroquinoline-3-carbohydrazide] | –
195.3 ± 1.2 | – | O=C(N/N=C/c1ccc(F)cc1)c1c(O)nc2ccccc2c1O [Compound 6c, (E)-N'-(4-fluorobenzylidene)-4-hydroxy-2-oxo-1,2-dihydroquinoline-3-carbohydrazide] | –
187.8 ± 0.3 | 185 to 187 | O=C(N/N=C/c1ccc(O)cc1O)c1c(O)c2ccccc2[nH]c1=O [Compound 6n, (E)-N'-(2,4-dihydroxybenzylidene)-4-hydroxy-2-oxo-1,2-dihydroquinoline-3-carbohydrazide] | –
520.2 ± 1.5 | 179 to 181 | O=C(N/N=C/c1ccc(Br)cc1)c1c(O)c2ccccc2[nH]c1=O [Compound 6f, (E)-N'-(4-bromobenzylidene)-4-hydroxy-2-oxo-1,2-dihydroquinoline-3-carbohydrazide] | –
